Reference: US9290485B2, “N-((6-amino-pyridin-3-yl)methyl)-heteroaryl-carboxamides” (NOVARTIS AG, priority 2010, dated 2016)

molecular target: human plasma kallikrein (Homo sapiens (Human), UniProt P03952); conditions: human plasma kallikrein 25 pM, substrate 0.5 uM, 1 hour pre-incubation at room temperature, read at t=60 min
Sequence (P03952 whole entry, looked up): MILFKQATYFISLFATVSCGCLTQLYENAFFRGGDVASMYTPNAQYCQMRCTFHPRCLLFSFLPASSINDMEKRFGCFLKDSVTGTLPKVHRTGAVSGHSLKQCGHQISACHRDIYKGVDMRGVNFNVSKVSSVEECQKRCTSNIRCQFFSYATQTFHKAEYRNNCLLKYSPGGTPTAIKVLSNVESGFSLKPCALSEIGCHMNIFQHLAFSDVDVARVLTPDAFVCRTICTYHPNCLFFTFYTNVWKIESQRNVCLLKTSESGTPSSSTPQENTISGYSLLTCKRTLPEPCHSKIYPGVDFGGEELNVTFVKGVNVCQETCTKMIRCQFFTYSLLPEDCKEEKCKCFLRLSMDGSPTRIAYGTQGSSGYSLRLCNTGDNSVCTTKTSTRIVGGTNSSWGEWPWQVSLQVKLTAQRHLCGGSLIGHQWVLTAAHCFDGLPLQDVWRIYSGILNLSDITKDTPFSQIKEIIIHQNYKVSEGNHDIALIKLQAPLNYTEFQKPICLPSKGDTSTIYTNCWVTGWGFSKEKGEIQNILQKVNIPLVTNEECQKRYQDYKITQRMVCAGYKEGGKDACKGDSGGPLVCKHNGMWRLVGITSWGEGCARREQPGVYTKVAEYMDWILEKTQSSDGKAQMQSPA
Sequence (P03952 whole entry partner, looked up): as the sequence (P03952 whole entry, looked up) above
Protocol: All other chemicals were of analytical grade.
A stock solution of 0.17 mg/ml deinonized water was stored at −80° C. Enzymatic reactions were conducted in ‘assay buffer’, comprising 50 mM Hepes/NaOH at pH 7.8, 150 mM NaCl, 1 mM EDTA and 0.05% (w/v) CHAPS.
Both, enzyme and substrate were diluted in assay buffer.
All protein and peptide containing solutions were handled in siliconized tubes (Life Systems Design, Merenschwand, Switzerland). […] Plate measurements were conducted by the means of a Safire2 reader (TECAN, Maennedorf, Switzerland). The Safire2 is a monochomator-based instrument and wavelengths of 485 nm and 535 nm were taken for fluorescence excitation and emission acquisition, respectively. The bandwidths were set to 10 nm in both the excitation and the emission path. The fluorescence in each well was excited by three flashes per measurement.
The test compound was dissolved in 90% (v/v) DMSO/water. For the assays, 250 nL of the 90% (v/v) DMSO/water solution or compound solution were added per well, followed by the addition of 12.5 μl protease solution (protease in assay buffer). […] After 1 hour of pre-incubation at room temperature, the reactions were started by the addition of 12.5 μl substrate solution (in assay buffer, final assay concentration was 0.5 uM). After the addition of the substrate solution, the final DMSO concentration in the assay was 0.9% (v/v). […] The IC50 value was calculated from the plot of percentage of inhibition vs. inhibitor concentration by a logistics fit according to the following equation: y=A2+(A1−A2)/(1+(x/IC50)^p) where y is the %-inhibition at the inhibitor concentration, x. A1 is the lowest inhibition value, i.e. 0%, and A2 the maximum inhibition value, i.e. 100%. The exponent, p, is the Hill coefficient. The curve fitting was conducted with the non-linear regression routine of the analysis software Origin 7.55R6 (OriginLab Corporation).

SMILES	IC50
Cc1cc(N)nc(C)c1CNC(=O)c1cc(Cc2ccccc2)no1 [Example 3, N-((6-amino-2,4-dimethylpyridin-3-yl)methyl)-3-benzylisoxazole-5-carboxamide]	2.26 µM
Cc1cc(N)nc(C)c1CNC(=O)c1nnc(Cc2ccccc2)o1 [Example 4, N-((6-amino-2,4-dimethylpyridin-3-yl)methyl)-5-benzyl-1,3,4-oxadiazole-2-carboxamide]	7.6 µM
Cc1cc(N)nc(C)c1CNC(=O)c1nc(Cc2ccccc2)no1 [Example 5, N-((6-amino-2,4-dimethylpyridin-3-yl)methyl)-3-benzyl-1,2,4-oxadiazole-5-carboxamide]	4.5 µM
Cc1cc(N)nc(C)c1CNC(=O)c1cn(Cc2ccc(Cn3cccn3)cc2)cn1 [Example 6, 1-(4-((1H-pyrazol-1-yl)methyl)benzyl)-N-((6-amino-2,4-dimethylpyridin-3-yl)methyl)-1H-imidazole-4-carboxamide]	0.0002 µM
Cc1cc(N)nc(C)c1CNC(=O)c1ncc(Cc2ccccc2)o1 [Example 7, N-((6-amino-2,4-dimethylpyridin-3-yl)methyl)-5-benzyloxazole-2-carboxamide]	2.03 µM
COc1ccc(Cc2nc(C(=O)NCc3c(C)cc(N)nc3C)co2)cc1 [Example 8, N-((6-amino-2,4-dimethylpyridin-3-yl)methyl)-2-(4-methoxybenzyl)oxazole-4-carboxamide]	2.64 µM
Cc1cc(N)nc(C)c1CNC(=O)c1cnn(C(CO)c2ccccc2)c1 (stereo not drawn) [Example 11, N-((6-amino-2,4-dimethylpyridin-3-yl)methyl)-1-(2-hydroxy-1-phenylethyl)-1H-pyrazole-4-carboxamide]	12.2 µM
COc1ccc(S(=O)(=O)n2ccc(C(=O)NCc3c(C)cc(N)nc3C)c2)cc1 [Example 12, 1-(4-Methoxy-benzenesulfonyl)-1H-pyrrole-3-carboxylic acid (6-amino-2,4-dimethyl-pyridin-3-ylmethyl)-amide]	1.37 µM
COc1cc(N)nc(C)c1CNC(=O)c1cnn(Cc2ccccc2)c1 [Example 14, N-((6-amino-4-methoxy-2-methylpyridin-3-yl)methyl)-1-benzyl-1H-pyrazole-4-carboxamide]	0.32 µM
Cc1nc(N)cc(OC2CCCCC2)c1CNC(=O)c1cnn(Cc2ccccc2)c1 [Example 15, N-((6-amino-4-(cyclohexyloxy)-2-methylpyridin-3-yl)methyl)-1-benzyl-1H-pyrazole-4-carboxamide]	0.23 µM
Cc1cc(N)nc(C)c1CNC(=O)c1cnn(Cc2ccc(CN3C(=O)CCC3=O)cc2)c1 [Example 17, N-((6-amino-2,4-dimethylpyridin-3-yl)methyl)-1-(4-((2,5-dioxopyrrolidin-1-yl)methyl)benzyl)-1H-pyrazole-4-carboxamide]	0.098 µM
Cc1cc(N)nc(C)c1CNC(=O)c1cnn(Cc2ccncc2)c1 [Example 18, N-((6-amino-2,4-dimethylpyridin-3-yl)methyl)-1-(pyridin-4-ylmethyl)-1H-pyrazole-4-carboxamide]	1.1 µM
Cc1cc(N)nc(C)c1CNC(=O)c1cn(Cc2ccccc2)nn1 [Example 21, N-((6-amino-2,4-dimethylpyridin-3-yl)methyl)-1-benzyl-1H-1,2,3-triazole-4-carboxamide]	2.54 µM
Cc1cc(N)nc(C)c1CNC(=O)c1cn(Cc2ccccc2)cn1 [Example 22, N-((6-amino-2,4-dimethylpyridin-3-yl)methyl)-1-benzyl-1H-imidazole-4-carboxamide]	1.7 µM
Cc1cc(N)nc(C)c1CNC(=O)c1cn(Cc2ccc(Oc3ccccc3)cc2)cn1 [Example 23, N-((6-amino-2,4-dimethylpyridin-3-yl)methyl)-1-(4-phenoxybenzyl)-1H-imidazole-4-carboxamide]	0.009 µM
Cc1cc(N)nc(C)c1CNC(=O)c1cn(Cc2ccc(-n3cccn3)cc2)cn1 [Example 24, 1-(4-(1H-pyrazol-1-yl)benzyl)-N-((6-amino-2,4-dimethylpyridin-3-yl)methyl)-1H-imidazole-4-carboxamide]	0.238 µM
Cc1cc(N)nc(C)c1CNC(=O)c1cnn(Cc2csc(Nc3ccccc3)n2)c1 [Example 25, N-((6-amino-2,4-dimethylpyridin-3-yl)methyl)-1-((2-(phenylamino)thiazol-4-yl)methyl)-1H-pyrazole-4-carboxamide]	0.109 µM
Cc1cc(N)nc(C)c1CNC(=O)c1cnn(Cc2sc(-c3ccccc3)nc2C)c1 [Example 26, N-((6-amino-2,4-dimethylpyridin-3-yl)methyl)-1-((4-methyl-2-phenylthiazol-5-yl)methyl)-1H-pyrazole-4-carboxamide]	0.019 µM
Cc1cc(N)nc(C)c1CNC(=O)c1cnn(Cc2csc(Cc3ccccc3)n2)c1 [Example 27, N-((6-amino-2,4-dimethylpyridin-3-yl)methyl)-1-((2-benzylthiazol-4-yl)methyl)-1H-pyrazole-4-carboxamide]	0.021 µM
Cc1cc(N)nc(C)c1CNC(=O)c1cnn(Cc2csc(C(C)(C)C)n2)c1 [Example 28, N-((6-amino-2,4-dimethylpyridin-3-yl)methyl)-1-((2-tert-butylthiazol-4-yl)methyl)-1H-pyrazole-4-carboxamide]	0.343 µM

SMILES	IC50
Cc1cc(N)nc(C)c1CNC(=O)c1cnn(Cc2csc(CC(=O)N(C)C)n2)c1 [Example 29, N-((6-amino-2,4-dimethylpyridin-3-yl)methyl)-1-((2-(2-(dimethylamino)-2-oxoethyl)thiazol-4-yl)methyl]-1H-pyrazole-4-carboxamide]	0.248 µM
Cc1cc(N)nc(C)c1CNC(=O)c1cnn(Cc2cn3ccccc3n2)c1 [Example 30, N-((6-amino-2,4-dimethylpyridin-3-yl)methyl)-1-(imidazo[1,2-a]pyridin-2-ylmethyl)-1H-pyrazole-4-carboxamide]	0.204 µM
Cc1cc(N)nc(C)c1CNC(=O)c1cnn(Cc2cc3ccccc3o2)c1 [Example 31]	0.143 µM
Cc1cc(N)nc(C)c1CNC(=O)c1cnn(Cc2coc(-c3ccccc3)n2)c1 [Example 32, N-((6-amino-2,4-dimethylpyridin-3-yl)methyl)-1-((2-phenyloxazol-4-yl)methyl)-1H-pyrazole-4-carboxamide]	0.041 µM
Cc1cc(N)nc(C)c1CNC(=O)c1cnn(Cc2ccc3[nH]cnc3c2)c1 [Example 33, 1-((1H-benzo[d]imidazol-5-yl)methyl)-N-((6-amino-2,4-dimethylpyridin-3-yl)methyl)-1H-pyrazole-4-carboxamide]	0.262 µM
Cc1cc(N)nc(C)c1CNC(=O)c1cnn(Cc2ccc3ccn(C)c3c2)c1 [Example 34, N-((6-amino-2,4-dimethylpyridin-3-yl)methyl)-1-((1-methyl-1H-indol-6-yl)methyl)-1H-pyrazole-4-carboxamide]	0.046 µM
Cc1cc(N)nc(C)c1CNC(=O)c1cnn(Cc2ncoc2-c2ccccc2)c1 [Example 35, N-((6-amino-2,4-dimethylpyridin-3-yl)methyl)-1-((5-phenyloxazol-4-yl)methyl)-1H-pyrazole-4-carboxamide]	3.9 µM
Cc1cc(N)nc(C)c1CNC(=O)c1cnn(S(=O)(=O)c2cccc(C#N)c2)c1 [Example 37, N-((6-amino-2,4-dimethylpyridin-3-yl)methyl)-1-(3-cyanophenylsulfonyl)-1H-pyrazole-4-carboxamide]	5.3 µM
Cc1cc(N)nc(C)c1CNC(=O)c1cn(Cc2ccc(Oc3ccccc3)cc2)nn1 [Example 38, N-((6-amino-2,4-dimethylpyridin-3-yl)methyl)-1-(4-phenoxybenzyl)-1H-1,2,3-triazole-4-carboxamide]	0.019 µM
Cc1cc(N)nc(C)c1CNC(=O)c1cn(Cc2cccc3ccccc23)nn1 [Example 39, N-((6-amino-2,4-dimethylpyridin-3-yl)methyl)-1-(naphthalen-1-ylmethyl)-1H-1,2,3-triazole-4-carboxamide]	0.634 µM
Cc1cc(N)nc(C)c1CNC(=O)c1cn(Cc2ccc3ccccc3c2)nn1 [Example 40, N-((6-amino-2,4-dimethylpyridin-3-yl)methyl)-1-(naphthalen-2-ylmethyl)-1H-1,2,3-triazole-4-carboxamide]	0.009 µM
Cc1cc(N)nc(C)c1CNC(=O)c1cn(Cc2ccc(-n3cccn3)cc2)nn1 [Example 41, 1-(4-(1H-pyrazol-1-yl)benzyl)-N-((6-amino-2,4-dimethylpyridin-3-yl)methyl]-1H-1,2,3-triazole-4-carboxamide]	0.108 µM
Cc1cc(N)nc(C)c1CNC(=O)c1cn(Cc2cccc(-n3cccn3)c2)nn1 [Example 42, 1-(3-(1H-pyrazol-1-yl)benzyl)-N-((6-amino-2,4-dimethylpyridin-3-yl)methyl)-1H-1,2,3-triazole-4-carboxamide]	0.145 µM
Cc1cc(N)nc(C)c1CNC(=O)c1cn(Cc2cccc(N3CCCC3)c2)nn1 [Example 43, N-((6-amino-2,4-dimethylpyridin-3-yl)methyl)-1-(3-(pyrolidin-1-yl)benzyl)-1H-1,2,3-triazole-4-carboxamide]	0.113 µM
Cc1cc(N)nc(C)c1CNC(=O)c1cnn(Cc2cc3ccccc3o2)n1 [Example 44, N-((6-amino-2,4-dimethylpyridin-3-yl)methyl)-2-(benzofuran-2-ylmethyl)-2H-1,2,3-triazole-4-carboxamide]	0.215 µM
Cc1cc(N)nc(C)c1CNC(=O)c1cn(Cc2ccc(Cn3ccnc3)cc2)nn1 [Example 45, 1-(4-((1H-imidazol-1-yl)methyl)benzyl)-N-((6-amino-2,4-dimethylpyridin-3-yl)methyl)-1H-1,2,3-triazole-4-carboxamide]	0.045 µM
Cc1cc(N)nc(C)c1CNC(=O)c1cn(Cc2cccc(Cn3ccnc3)c2)nn1 [Example 46, 1-(3-((1H-imidazol-1-yl)methyl)benzyl)-N-((6-amino-2,4-dimethylpyridin-3-yl)methyl)-1H-1,2,3-triazole-4-carboxamide]	1.1 µM
Cc1cc(N)nc(C)c1CNC(=O)c1csc(Cc2ccccc2)n1 [Example 47, N-((6-amino-2,4-dimethylpyridin-3-yl)methyl)-2-benzylthiazole-4-carboxamide]	3.2 µM
Cc1cc(N)nc(C)c1CNC(=O)c1ccc(Oc2ccccc2)o1 [Example 48, N-((6-amino-2,4-dimethylpyridin-3-yl)methyl)-5-phenoxyfuran-2-carboxamide]	35.5 µM
